{
  "source": "paper doi:10.1101/2021.04.08.439011v1",
  "about": "(biorxiv, 2021)",
  "key": {"PFCDPK1 (P. falciparum)": {"biological_target": "PFCDPK1 (P. falciparum) (Plasmodium falciparum, UniProt P62344)", "details": "1 µM; binder"}, "[1]": {"biological_target": "TYK2(JH1domain-catalytic) (Homo sapiens, UniProt P29597)", "sequence (P29597 whole entry)": "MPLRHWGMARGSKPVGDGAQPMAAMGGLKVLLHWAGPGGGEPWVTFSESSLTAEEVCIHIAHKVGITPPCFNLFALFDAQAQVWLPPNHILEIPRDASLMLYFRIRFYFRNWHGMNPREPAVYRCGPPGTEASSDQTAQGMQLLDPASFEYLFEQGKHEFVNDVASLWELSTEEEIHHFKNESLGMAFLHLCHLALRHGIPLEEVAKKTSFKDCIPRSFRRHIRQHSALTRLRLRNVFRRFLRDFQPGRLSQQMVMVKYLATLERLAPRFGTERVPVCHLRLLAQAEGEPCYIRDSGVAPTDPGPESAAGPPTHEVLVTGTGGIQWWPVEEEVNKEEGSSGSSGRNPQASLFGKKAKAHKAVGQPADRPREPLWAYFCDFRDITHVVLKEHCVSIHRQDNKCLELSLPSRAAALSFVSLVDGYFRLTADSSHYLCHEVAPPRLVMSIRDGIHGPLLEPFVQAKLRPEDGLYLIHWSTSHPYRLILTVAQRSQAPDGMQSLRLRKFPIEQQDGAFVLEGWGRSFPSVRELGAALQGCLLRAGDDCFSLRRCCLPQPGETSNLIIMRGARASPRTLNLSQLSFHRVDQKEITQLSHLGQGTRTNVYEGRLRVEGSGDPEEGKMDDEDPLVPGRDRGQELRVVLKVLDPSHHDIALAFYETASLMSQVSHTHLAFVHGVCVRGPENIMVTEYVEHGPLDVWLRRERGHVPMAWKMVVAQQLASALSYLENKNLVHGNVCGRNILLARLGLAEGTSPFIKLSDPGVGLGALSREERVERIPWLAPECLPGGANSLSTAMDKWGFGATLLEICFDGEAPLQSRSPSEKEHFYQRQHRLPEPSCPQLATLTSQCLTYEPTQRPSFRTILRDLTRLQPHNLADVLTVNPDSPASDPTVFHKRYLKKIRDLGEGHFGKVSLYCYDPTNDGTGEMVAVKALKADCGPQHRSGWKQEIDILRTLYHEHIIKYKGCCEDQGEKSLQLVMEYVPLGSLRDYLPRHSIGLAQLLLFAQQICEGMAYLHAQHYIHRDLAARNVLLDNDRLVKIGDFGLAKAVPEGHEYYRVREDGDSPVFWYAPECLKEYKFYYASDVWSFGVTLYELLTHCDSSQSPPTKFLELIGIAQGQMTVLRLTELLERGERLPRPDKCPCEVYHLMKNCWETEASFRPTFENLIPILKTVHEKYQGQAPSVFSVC", "details": "0.1 µM; binder"}, "MARK3": {"biological_target": "MARK3 (Homo sapiens, UniProt P27448)", "details": "0.1 µM; binder"}, "GRK2": {"biological_target": "GRK2 (Homo sapiens, UniProt P25098)", "details": "0.1 µM; binder"}, "JNK3": {"biological_target": "JNK3 (Homo sapiens, UniProt P53779)", "details": "0.1 µM; binder"}, "PCTK2": {"biological_target": "PCTK2 (Homo sapiens, UniProt Q00537)", "sequence (Q00537 whole entry)": "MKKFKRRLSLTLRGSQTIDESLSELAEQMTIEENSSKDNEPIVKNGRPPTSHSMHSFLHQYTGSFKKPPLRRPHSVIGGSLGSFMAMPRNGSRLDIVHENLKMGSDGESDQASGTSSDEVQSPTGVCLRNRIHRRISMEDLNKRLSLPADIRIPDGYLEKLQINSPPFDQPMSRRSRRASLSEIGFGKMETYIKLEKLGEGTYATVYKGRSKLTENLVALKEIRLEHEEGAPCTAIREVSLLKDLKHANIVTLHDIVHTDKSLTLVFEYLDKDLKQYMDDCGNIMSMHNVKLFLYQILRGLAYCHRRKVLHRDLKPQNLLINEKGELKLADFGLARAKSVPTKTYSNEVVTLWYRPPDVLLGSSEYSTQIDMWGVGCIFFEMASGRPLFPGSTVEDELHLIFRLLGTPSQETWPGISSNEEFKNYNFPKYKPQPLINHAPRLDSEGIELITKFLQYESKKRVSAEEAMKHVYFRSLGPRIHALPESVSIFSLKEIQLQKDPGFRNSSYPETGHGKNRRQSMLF", "details": "0.1 µM; binder"}, "MST4": {"biological_target": "MST4 (Homo sapiens, UniProt Q9P289)", "sequence (Q9P289 whole entry)": "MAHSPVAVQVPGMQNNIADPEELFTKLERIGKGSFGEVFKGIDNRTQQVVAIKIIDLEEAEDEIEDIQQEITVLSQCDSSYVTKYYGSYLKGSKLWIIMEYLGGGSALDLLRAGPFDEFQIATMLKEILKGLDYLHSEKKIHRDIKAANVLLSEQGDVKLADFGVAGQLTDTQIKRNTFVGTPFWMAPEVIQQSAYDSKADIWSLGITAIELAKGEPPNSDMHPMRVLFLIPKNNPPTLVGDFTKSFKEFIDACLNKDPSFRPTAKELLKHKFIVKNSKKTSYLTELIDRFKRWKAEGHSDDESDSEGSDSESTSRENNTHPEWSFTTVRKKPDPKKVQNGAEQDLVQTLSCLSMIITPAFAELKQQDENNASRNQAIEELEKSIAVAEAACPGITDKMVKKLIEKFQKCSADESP", "details": "0.1 µM; binder"}, "CDKL1": {"biological_target": "CDKL1 (Homo sapiens, UniProt Q00532)", "details": "0.1 µM; binder"}, "CDC2L5": {"biological_target": "CDC2L5 (Homo sapiens, UniProt Q14004)", "details": "0.1 µM; binder"}, "NEK10": {"biological_target": "NEK10 (Homo sapiens, UniProt Q6ZWH5)", "details": "0.1 µM; binder"}, "VRK2": {"biological_target": "VRK2 (Homo sapiens, UniProt Q86Y07)", "details": "0.1 µM; binder"}, "GRK7": {"biological_target": "GRK7 (Homo sapiens, UniProt Q8WTQ7)", "details": "0.1 µM; binder"}, "MARK1": {"biological_target": "MARK1 (Homo sapiens, UniProt Q9P0L2)", "sequence (Q9P0L2 whole entry)": "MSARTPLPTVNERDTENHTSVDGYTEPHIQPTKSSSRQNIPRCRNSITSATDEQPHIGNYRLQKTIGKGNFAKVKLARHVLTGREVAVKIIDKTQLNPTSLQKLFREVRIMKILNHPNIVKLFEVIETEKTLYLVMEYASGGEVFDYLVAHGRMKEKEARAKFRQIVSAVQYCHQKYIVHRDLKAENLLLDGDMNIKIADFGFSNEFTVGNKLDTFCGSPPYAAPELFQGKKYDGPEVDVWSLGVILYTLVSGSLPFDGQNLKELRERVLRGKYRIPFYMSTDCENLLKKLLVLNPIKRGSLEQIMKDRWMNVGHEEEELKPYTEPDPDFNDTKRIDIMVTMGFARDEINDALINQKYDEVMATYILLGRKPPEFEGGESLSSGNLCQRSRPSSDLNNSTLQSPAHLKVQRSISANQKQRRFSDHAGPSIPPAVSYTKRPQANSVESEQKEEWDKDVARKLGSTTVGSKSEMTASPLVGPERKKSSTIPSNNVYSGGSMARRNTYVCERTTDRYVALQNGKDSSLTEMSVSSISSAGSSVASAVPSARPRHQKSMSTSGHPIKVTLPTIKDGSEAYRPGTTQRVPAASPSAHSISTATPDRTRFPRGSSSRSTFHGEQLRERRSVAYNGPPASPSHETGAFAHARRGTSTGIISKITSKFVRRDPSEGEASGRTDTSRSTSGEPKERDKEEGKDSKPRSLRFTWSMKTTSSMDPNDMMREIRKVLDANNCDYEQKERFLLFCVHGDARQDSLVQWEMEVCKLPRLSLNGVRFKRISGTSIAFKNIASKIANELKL", "details": "0.1 µM; binder"}, "NLK": {"biological_target": "NLK (Homo sapiens, UniProt Q9UBE8)", "details": "0.1 µM; binder"}, "LKB1": {"biological_target": "LKB1 (Homo sapiens, UniProt Q15831)", "sequence (Q15831 whole entry)": "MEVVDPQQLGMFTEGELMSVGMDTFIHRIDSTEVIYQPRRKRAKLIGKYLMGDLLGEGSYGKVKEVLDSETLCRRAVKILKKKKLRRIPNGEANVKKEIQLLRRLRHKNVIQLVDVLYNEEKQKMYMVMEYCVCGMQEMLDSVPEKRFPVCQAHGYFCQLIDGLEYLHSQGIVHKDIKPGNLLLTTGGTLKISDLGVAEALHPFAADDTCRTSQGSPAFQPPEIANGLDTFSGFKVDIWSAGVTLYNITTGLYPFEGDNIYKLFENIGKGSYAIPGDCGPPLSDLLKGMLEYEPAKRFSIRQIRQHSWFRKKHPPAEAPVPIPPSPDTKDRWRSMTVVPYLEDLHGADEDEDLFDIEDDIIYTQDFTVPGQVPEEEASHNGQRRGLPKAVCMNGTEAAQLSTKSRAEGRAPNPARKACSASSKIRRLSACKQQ", "details": "0.1 µM; binder"}, "EPHA1": {"biological_target": "EPHA1 (Homo sapiens, UniProt P21709)", "details": "0.1 µM; binder"}, "DRAK1": {"biological_target": "DRAK1 (Homo sapiens, UniProt Q9UEE5)", "details": "0.1 µM; binder"}, "FGFR4": {"biological_target": "FGFR4 (Homo sapiens, UniProt P22455)", "details": "0.1 µM; binder"}, "DRAK2": {"biological_target": "DRAK2 (Homo sapiens, UniProt O94768)", "details": "0.1 µM; binder"}, "KIT(V559D)": {"biological_target": "KIT(V559D) (Homo sapiens, UniProt P10721, V559D)", "details": "0.1 µM; binder"}, "ABL1(Q252H)": {"biological_target": "ABL1(Q252H) (Homo sapiens, UniProt P00519, Q252H)", "details": "0.1 µM, binder"}, "PCTK3": {"biological_target": "PCTK3 (Homo sapiens, UniProt Q07002)", "sequence (Q07002 whole entry)": "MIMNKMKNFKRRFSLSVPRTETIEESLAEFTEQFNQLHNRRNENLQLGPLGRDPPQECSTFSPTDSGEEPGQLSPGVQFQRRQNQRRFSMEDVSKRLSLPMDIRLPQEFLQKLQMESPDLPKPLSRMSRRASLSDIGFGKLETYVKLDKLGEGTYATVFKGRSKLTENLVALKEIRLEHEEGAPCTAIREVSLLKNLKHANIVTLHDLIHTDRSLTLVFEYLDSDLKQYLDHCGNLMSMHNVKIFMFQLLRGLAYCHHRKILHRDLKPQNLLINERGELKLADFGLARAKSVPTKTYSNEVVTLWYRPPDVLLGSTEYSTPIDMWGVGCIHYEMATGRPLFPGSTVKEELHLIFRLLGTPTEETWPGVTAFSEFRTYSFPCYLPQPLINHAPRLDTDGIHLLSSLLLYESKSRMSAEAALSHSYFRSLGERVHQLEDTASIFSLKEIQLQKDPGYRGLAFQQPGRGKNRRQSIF", "details": "0.1 µM; binder"}, "ACVR1B": {"biological_target": "ACVR1B (Homo sapiens, UniProt P36896)", "details": "0.1 µM; binder"}, "NEK6": {"biological_target": "NEK6 (Homo sapiens, UniProt Q9HC98)", "details": "0.1 µM; binder"}, "PIK3CA(I800L)": {"biological_target": "PIK3CA(I800L) (Homo sapiens, UniProt P42336, I800L)", "details": "0.1 µM; binder"}, "LATS1": {"biological_target": "LATS1 (Homo sapiens, UniProt O95835)", "details": "0.1 µM; binder"}, "CSNK1G3": {"biological_target": "CSNK1G3 (Homo sapiens, UniProt Q9Y6M4)", "sequence (Q9Y6M4 whole entry)": "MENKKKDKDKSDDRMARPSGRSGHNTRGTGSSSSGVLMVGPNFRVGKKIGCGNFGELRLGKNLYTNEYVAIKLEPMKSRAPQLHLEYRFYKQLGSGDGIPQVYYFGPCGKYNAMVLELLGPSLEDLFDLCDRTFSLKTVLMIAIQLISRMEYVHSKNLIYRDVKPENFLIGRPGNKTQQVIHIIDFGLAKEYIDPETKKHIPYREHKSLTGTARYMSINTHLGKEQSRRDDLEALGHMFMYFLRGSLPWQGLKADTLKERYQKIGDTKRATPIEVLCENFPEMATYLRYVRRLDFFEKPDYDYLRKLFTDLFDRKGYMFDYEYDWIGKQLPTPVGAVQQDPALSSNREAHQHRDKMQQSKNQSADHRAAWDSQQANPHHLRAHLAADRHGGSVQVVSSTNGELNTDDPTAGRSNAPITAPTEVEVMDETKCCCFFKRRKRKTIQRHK", "details": "0.1 µM; binder"}, "TESK1": {"biological_target": "TESK1 (Homo sapiens, UniProt Q15569)", "details": "0.1 µM; binder"}, "EGFR(L858R)": {"biological_target": "EGFR(L858R) (Homo sapiens, UniProt P00533, L858R)", "details": "0.1 µM; binder"}, "TXK": {"biological_target": "TXK (Homo sapiens, UniProt P42681)", "details": "0.1 µM; binder"}, "BRSK2": {"biological_target": "BRSK2 (Homo sapiens, UniProt Q8IWQ3)", "sequence (Q8IWQ3 whole entry)": "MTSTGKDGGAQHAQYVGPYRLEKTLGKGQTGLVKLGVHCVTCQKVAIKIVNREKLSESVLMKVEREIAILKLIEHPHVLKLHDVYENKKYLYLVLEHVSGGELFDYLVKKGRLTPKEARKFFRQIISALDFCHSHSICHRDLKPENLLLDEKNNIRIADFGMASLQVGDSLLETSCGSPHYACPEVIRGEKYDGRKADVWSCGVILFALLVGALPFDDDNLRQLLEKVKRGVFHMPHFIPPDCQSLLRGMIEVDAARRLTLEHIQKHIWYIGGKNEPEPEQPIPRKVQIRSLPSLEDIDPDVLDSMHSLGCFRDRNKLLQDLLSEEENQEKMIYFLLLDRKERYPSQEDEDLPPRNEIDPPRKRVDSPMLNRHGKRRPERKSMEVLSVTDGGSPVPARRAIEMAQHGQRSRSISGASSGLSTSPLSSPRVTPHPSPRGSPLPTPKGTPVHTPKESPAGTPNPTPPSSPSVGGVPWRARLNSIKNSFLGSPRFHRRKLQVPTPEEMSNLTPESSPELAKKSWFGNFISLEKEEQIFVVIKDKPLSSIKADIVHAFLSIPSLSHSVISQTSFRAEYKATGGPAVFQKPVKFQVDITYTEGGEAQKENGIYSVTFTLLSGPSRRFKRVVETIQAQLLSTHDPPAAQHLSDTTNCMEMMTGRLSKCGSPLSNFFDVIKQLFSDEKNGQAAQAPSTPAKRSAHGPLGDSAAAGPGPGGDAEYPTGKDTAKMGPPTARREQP", "details": "0.1 µM; binder"}},
  "note": "Read-outs that look alike come from different tables or passages of the source.",
  "data": [
    {"compound": "CNc1ncc2cc(-c3ccc(-c4cccc(C)n4)cc3Cl)c(=O)n(C[C@H]3OC[C@H](N)CO3)c2n1", "note": "[compound 6, G-5555]", "values": [
      {"measurement": "Percent Control", "setting": "PFCDPK1 (P. falciparum)", "value": 0.4, "unit": "%"},
      {"measurement": "Percent Control", "setting": "[1]", "value": 94, "unit": "%"},
      {"measurement": "Percent Control", "setting": "MARK3", "value": 45, "unit": "%"},
      {"measurement": "Percent Control", "setting": "GRK2", "value": 97, "unit": "%"},
      {"measurement": "Percent Control", "setting": "JNK3", "value": 92, "unit": "%"},
      {"measurement": "Percent Control", "setting": "PCTK2", "value": 100, "unit": "%"},
      {"measurement": "Percent Control", "setting": "MST4", "value": 0.5, "unit": "%"},
      {"measurement": "Percent Control", "setting": "CDKL1", "value": 100, "unit": "%"},
      {"measurement": "Percent Control", "setting": "CDC2L5", "value": 79, "unit": "%"},
      {"measurement": "Percent Control", "setting": "NEK10", "value": 91, "unit": "%"},
      {"measurement": "Percent Control", "setting": "VRK2", "value": 94, "unit": "%"},
      {"measurement": "Percent Control", "setting": "GRK7", "value": 89, "unit": "%"},
      {"measurement": "Percent Control", "setting": "MARK1", "value": 100, "unit": "%"},
      {"measurement": "Percent Control", "setting": "NLK", "value": 73, "unit": "%"},
      {"measurement": "Percent Control", "setting": "LKB1", "value": 100, "unit": "%"},
      {"measurement": "Percent Control", "setting": "EPHA1", "value": 64, "unit": "%"},
      {"measurement": "Percent Control", "setting": "DRAK1", "value": 79, "unit": "%"},
      {"measurement": "Percent Control", "setting": "FGFR4", "value": 100, "unit": "%"},
      {"measurement": "Percent Control", "setting": "DRAK2", "value": 66, "unit": "%"},
      {"measurement": "Percent Control", "setting": "KIT(V559D)", "value": 99, "unit": "%"},
      {"measurement": "Percent Control", "setting": "ABL1(Q252H); nonphosphorylated", "value": 86, "unit": "%"},
      {"measurement": "Percent Control", "setting": "ABL1(Q252H); phosphorylated", "value": 97, "unit": "%"},
      {"measurement": "Percent Control", "setting": "PCTK3", "value": 100, "unit": "%"},
      {"measurement": "Percent Control", "setting": "ACVR1B", "value": 100, "unit": "%"},
      {"measurement": "Percent Control", "setting": "NEK6", "value": 100, "unit": "%"},
      {"measurement": "Percent Control", "setting": "PIK3CA(I800L)", "value": 87, "unit": "%"},
      {"measurement": "Percent Control", "setting": "LATS1", "value": 57, "unit": "%"},
      {"measurement": "Percent Control", "setting": "CSNK1G3", "value": 100, "unit": "%"},
      {"measurement": "Percent Control", "setting": "TESK1", "value": 83, "unit": "%"},
      {"measurement": "Percent Control", "setting": "EGFR(L858R)", "value": 100, "unit": "%"},
      {"measurement": "Percent Control", "setting": "TXK", "value": 100, "unit": "%"},
      {"measurement": "Percent Control", "setting": "BRSK2", "value": 100, "unit": "%"}
    ]}
  ]
}
